Experimental data: US20240299285A1, “PERSONAL CARE COMPOSITION” (The Procter & Gamble Company, priority 2023, published 2024)

Test: Solubility Method (cooling/heating cycles, % transmittance, visual precipitate check)
Assay type: physicochemical
Conditions: SLT:SMLT 10.5:1, co-surfactant 1 % or 4 %, pH 5.2
Text: This method can be used to determine the solubility characteristics of a material (e.g., an acyl taurate) in a composition. The method uses heating and cooling cycles to simulate environmental conditions commonly experienced by a personal care product and accelerate the processes that can lead to product instability.
The test composition (e.g., an aqueous surfactant composition consisting of an acyl taurate surfactant and an N-alkyl acyl taurate surfactant and/or a co-surfactant, and/or a cationic polymer and water) is placed in a closed container to prevent evaporation and heated at 40° C. for a minimum of 30 minutes or until the composition is visually clear & free of precipitates. One mL of the test solution is added to a Crystal-16 vial, closed with a basic cap and placed into a Technobis Crystallization Systems Crystal16® Model 2.2 or equivalent. The % transmittance readings are set to record 1 measurement every 300 seconds. The vials are cooled to 5° C. at a rate of 0.25° C./min and held at 5° C. for 8 hours (cooling cycle). The vials are then heated to 20° C. at a rate of 0.25° C./min and held at 20° C. for 8 hours (heating cycle). […] When the final % T recorded at the end of the heating cycle is greater than or equal to 90% and no precipitate is observed the sample is considered soluble.

| effect of co-surfactant on acyl taurate (SLT) solubility | Substance |
| --- | --- |
| did not provide the desired solubility | cocamidopropyl hydroxysultaine [CAPHS] |
| did not provide the desired solubility | sodium lauroamphoacetate |
